The target in the experiment is Beta-secretase 1 (Homo sapiens, UniProt P56817). In words: Inhibition of BACE1 (unknown origin) using Rh-EVNNLDAEFK-Quencher substrate incubated for 3 hrs by FRET assay.

For three molecules, IC50 results are on record in ChEMBL document CHEMBL4339241, “Meroterpenoids with BACE1 Inhibitory Activity from the Fruiting Body of Boletinus asiaticus” (J Nat Prod, 2019).

One may read the IC50 as the concentration that inhibits the measured activity by half. Read a high IC50 as weaker potency.

Beta-secretase 1, sequence (P56817 whole entry): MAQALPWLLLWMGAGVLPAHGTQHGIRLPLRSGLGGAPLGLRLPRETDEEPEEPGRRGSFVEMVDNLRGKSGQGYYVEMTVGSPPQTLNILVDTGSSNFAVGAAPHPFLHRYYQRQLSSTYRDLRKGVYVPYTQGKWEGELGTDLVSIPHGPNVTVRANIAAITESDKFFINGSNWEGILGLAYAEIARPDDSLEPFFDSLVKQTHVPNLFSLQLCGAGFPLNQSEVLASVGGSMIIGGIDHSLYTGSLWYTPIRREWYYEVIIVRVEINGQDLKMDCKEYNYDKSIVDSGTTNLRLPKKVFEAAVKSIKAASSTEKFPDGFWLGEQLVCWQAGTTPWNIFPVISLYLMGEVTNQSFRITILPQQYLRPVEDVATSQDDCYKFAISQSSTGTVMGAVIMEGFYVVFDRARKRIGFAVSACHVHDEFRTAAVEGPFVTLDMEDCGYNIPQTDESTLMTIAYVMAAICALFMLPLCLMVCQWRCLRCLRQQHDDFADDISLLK

In turn, `C/C(=C\CC/C(C)=C/Cc1cc(C(=O)O)ccc1O)CC/C=C(\C)CC/C=C(\C)C(=O)O` returned an IC50 of 2 µM. This counts as single-digit micromolar.
Molecule `C/C(=C\CC/C(C)=C/CCC1(C)C=Cc2cc(C(=O)O)ccc2O1)CC/C=C(\C)C(=O)O` (racemic) registered an IC50 of 11.4 µM. Against the preceding molecule, the IC50 is about 5.7-fold higher.
The figure for `C=C(CC/C=C(\C)CC/C=C(\C)C(=O)O)C(O)CC/C(C)=C/Cc1cc(C(=O)O)ccc1O` (racemic) is 14.7 µM.
